Assay results from ChEMBL document CHEMBL4602703, “Lead Optimization of a Pyrrole-Based Dihydroorotate Dehydrogenase Inhibitor Series for the Treatment of Malaria” (J Med Chem, 2020).
pEC50, pIC50: −log10 of the molar value. Converted amounts (≈) assume the structure as drawn.

Legend:
[1] = Cmax in Swiss mouse at 10.5 mg/kg, po via gavage measured up to 24 hrs by UPLC-MS analysis; assay type: ADME, organism-based; parameters: dose 10.5 mg/kg, route oral; conditions: in vivo
[2] = Cmax in NOD-SCID IL2Rgamma null mouse blood infected with Plasmodium falciparum 3D70087/N9 at 50 mg/kg, po qd for 4 days starting from 3 days post infection and measured after 24 hrs post dose by LC-MS/MS analysis
[3] = Protein binding in mouse plasma by LC-MS analysis based ultracentrifugation assay; assay type: ADME, cell-free; conditions: read-out: PPB (converted)
[4] = simulated gi fluid, pH 5.8
[5] = tested on: L1210; test: Cytotoxicity against mouse L1210 cells assessed as reduction in cell viability; assay type: cell-based
[6] = Apparent half life in Swiss mouse at 50 mg/kg, po via gavage measured up to 24 hrs by UPLC-MS analysis; assay type: ADME, organism-based; conditions: in vivo
[7] = fAUC in Plasmodium falciparum 3D70087/N9 infected po dosed NOD-SCID IL2Rgamma null mouse blood administered once daily for 4 days; assay type: ADME, organism-based; conditions: in vivo, 96 h
[8] = tested on: Plasmodium falciparum; assay type: functional, organism-based; conditions: R10C1B, 72 h
[9] = molecular target: Voltage-gated inwardly rectifying potassium channel KCNH2 (Homo sapiens, UniProt Q12809); test: Inhibition of human ERG by IonWorks patch clamp electrophysiology assay
Sequence of Voltage-gated inwardly rectifying potassium channel KCNH2 (Q12809 whole entry): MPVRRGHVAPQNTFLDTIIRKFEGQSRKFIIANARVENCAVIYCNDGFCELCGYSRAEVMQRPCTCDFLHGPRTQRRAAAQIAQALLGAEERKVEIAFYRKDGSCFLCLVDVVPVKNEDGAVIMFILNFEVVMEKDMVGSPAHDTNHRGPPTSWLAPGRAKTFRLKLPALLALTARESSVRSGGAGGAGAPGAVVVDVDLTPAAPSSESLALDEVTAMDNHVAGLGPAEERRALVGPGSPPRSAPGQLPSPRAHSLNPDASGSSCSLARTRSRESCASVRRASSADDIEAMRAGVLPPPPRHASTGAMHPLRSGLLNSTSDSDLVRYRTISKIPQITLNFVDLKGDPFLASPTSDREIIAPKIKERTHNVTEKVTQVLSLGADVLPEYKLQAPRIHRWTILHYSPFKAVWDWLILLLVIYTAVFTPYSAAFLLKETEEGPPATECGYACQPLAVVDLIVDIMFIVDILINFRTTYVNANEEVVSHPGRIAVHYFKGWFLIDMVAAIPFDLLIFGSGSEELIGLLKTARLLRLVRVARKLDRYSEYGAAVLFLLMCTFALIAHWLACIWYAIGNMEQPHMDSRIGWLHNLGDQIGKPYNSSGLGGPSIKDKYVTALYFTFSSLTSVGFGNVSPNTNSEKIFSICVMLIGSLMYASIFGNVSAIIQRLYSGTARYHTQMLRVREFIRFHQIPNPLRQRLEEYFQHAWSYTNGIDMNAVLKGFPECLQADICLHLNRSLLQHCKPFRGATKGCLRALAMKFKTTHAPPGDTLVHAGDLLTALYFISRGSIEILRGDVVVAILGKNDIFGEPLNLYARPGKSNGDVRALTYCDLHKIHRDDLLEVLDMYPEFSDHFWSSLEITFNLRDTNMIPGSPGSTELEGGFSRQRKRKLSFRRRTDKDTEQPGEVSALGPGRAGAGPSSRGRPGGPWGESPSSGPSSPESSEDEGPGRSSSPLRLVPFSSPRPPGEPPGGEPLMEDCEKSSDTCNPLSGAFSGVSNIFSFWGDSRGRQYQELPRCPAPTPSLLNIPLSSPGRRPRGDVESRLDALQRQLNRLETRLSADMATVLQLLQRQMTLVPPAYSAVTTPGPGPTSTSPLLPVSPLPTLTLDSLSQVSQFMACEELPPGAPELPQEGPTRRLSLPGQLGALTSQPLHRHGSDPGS

[10] = molecular target: T1, CYP3A4/5 (Homo sapiens, UniProt P08684+P20815); test: in vitro; conditions: liver microsomes, probe testosterone
[11] = Volume of drug distribution at steady state in Swiss mouse at […], iv administered as bolus dose measured up to 24 hrs by UPLC-MS analysis; assay type: ADME, organism-based; conditions: in vivo
[12] = Cmax in Swiss mouse at 18.3 mg/kg, po via gavage measured up to 24 hrs by UPLC-MS analysis; assay type: ADME, organism-based; parameters: dose 18.3 mg/kg, route oral; conditions: in vivo
[13] = molecular target: Potassium voltage-gated channel subfamily A member 5 (Homo sapiens, UniProt P22460); test: Inhibition of human Kv1.5 by IonWorks patch clamp electrophysiology assay
Sequence of Potassium voltage-gated channel subfamily A member 5 (P22460 whole entry): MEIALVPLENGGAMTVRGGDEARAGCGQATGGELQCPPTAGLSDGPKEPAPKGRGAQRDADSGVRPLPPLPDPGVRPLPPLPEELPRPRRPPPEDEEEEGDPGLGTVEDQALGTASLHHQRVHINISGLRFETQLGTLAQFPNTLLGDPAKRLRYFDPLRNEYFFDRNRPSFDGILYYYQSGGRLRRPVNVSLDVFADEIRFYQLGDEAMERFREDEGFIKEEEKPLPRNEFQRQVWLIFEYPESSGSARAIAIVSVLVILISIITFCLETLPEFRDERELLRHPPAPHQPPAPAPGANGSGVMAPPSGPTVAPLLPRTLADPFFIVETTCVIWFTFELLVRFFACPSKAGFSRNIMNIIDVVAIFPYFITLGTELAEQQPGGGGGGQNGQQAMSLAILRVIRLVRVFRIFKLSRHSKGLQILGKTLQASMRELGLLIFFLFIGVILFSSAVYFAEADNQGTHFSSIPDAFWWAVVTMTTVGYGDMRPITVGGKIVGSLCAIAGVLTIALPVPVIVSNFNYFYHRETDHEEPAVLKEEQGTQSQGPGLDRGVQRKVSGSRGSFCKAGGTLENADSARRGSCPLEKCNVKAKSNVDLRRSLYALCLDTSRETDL

[14] = Apparent half life in Swiss mouse at […], iv administered as bolus dose measured up to 24 hrs by UPLC-MS analysis; assay type: ADME, organism-based; conditions: in vivo
[15] = simulated gi fluid, pH 6.5
[16] = Protein binding in DMEM medium containing 10% fetal calf serum by LC-MS analysis based ultracentrifugation assay; assay type: ADME, cell-free, Bos taurus; conditions: cattle, DMEM medium containing 10% fetal calf serum; read-out: PB (converted)
[17] = Oral bioavailability in Swiss mouse at 50 mg/kg dosed via gavage measured up to 24 hrs by UPLC-MS analysis; assay type: ADME, organism-based; conditions: in vivo
[18] = AUC (0 to infinity) in Swiss mouse at 18.3 mg/kg, po via gavage measured up to 24 hrs by UPLC-MS analysis; assay type: ADME, organism-based; parameters: dose 18.3 mg/kg, time infinity, route oral; conditions: in vivo
[19] = Cmax in Swiss mouse at 50 mg/kg, po via gavage measured up to 24 hrs by UPLC-MS analysis; assay type: ADME, organism-based; parameters: dose 50 mg/kg, route oral; conditions: in vivo
[20] = molecular target: T1, CYP3A4/5; test: in vitro; conditions: liver microsomes, probe midazolam
[21] = AUC (0 to infinity) in Swiss mouse at 50 mg/kg, po via gavage measured up to 24 hrs by UPLC-MS analysis; assay type: ADME, organism-based; parameters: dose 50 mg/kg, route oral, time infinity; conditions: in vivo
[22] = Toxicity in Plasmodium falciparum 3D70087/N9 infected NOD-SCID IL2Rgamma null mouse assessed as death at 10 mg/kg, po administered once daily for 4 days measured 24 hrs post dose; assay type: organism-based; conditions: in vivo
[23] = molecular target: T1, CYP3A4/5; test: in vitro; conditions: liver microsomes, probe midazolam; remark: listed apart in the source
[24] = AUC (0 to infinity) in Swiss mouse blood at 18.3 mg/kg, po via gavage measured up to 24 hrs by UPLC-MS analysis; assay type: ADME, organism-based; parameters: dose 18.3 mg/kg, route oral, time infinity; conditions: in vivo
[25] = molecular target: Cytochrome P450 2C9 (Homo sapiens, UniProt P11712); test: Inhibition of CYP2C9 in human liver microsomes using tolbutamide as substrate measured for 10 to 30 mins in presence of NADPH regenerating system by UPLC-MS analysis; assay type: ADME
Sequence of Cytochrome P450 2C9 (P11712 whole entry): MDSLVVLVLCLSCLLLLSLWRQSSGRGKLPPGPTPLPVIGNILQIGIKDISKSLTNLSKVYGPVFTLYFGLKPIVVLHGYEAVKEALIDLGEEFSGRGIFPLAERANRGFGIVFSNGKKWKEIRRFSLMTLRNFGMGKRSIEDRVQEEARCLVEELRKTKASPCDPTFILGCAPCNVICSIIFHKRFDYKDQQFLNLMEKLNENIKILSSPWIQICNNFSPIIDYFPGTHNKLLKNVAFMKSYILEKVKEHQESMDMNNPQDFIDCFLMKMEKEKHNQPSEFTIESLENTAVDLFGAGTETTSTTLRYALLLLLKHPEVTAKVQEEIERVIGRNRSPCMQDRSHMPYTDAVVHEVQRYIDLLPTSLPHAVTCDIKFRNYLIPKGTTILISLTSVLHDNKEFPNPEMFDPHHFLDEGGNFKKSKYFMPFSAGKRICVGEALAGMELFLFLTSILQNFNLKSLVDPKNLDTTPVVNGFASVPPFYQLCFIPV

[26] = Toxicity in Plasmodium falciparum 3D70087/N9 infected NOD-SCID IL2Rgamma null mouse at 50 mg/kg, po administered once daily for 4 days measured 24 hrs post dose; assay type: organism-based; conditions: in vivo
[27] = Apparent half life in Sprague-Dawley rat at 33 mg/kg, po administered via gavage measured up to 24 hrs by LC-MS analysis; assay type: ADME, organism-based; conditions: in vivo
[28] = Protein binding in human liver microsomes by LC-MS analysis based ultracentrifugation assay; assay type: ADME, Microsome; conditions: read-out: PB (converted)
[29] = Intrinsic clearance in liver microsomes assessed as per mg protein; conditions: read-out: CLH
[30] = molecular target: Cytochrome P450 2D6 (Homo sapiens, UniProt P10635); test: Time-dependent inhibition of CYP2D6 in human liver microsomes using dextromethorphan as substrate in presence of NADPH regenerating system by UPLC-MS analysis; assay type: ADME
Sequence of Cytochrome P450 2D6 (P10635 whole entry): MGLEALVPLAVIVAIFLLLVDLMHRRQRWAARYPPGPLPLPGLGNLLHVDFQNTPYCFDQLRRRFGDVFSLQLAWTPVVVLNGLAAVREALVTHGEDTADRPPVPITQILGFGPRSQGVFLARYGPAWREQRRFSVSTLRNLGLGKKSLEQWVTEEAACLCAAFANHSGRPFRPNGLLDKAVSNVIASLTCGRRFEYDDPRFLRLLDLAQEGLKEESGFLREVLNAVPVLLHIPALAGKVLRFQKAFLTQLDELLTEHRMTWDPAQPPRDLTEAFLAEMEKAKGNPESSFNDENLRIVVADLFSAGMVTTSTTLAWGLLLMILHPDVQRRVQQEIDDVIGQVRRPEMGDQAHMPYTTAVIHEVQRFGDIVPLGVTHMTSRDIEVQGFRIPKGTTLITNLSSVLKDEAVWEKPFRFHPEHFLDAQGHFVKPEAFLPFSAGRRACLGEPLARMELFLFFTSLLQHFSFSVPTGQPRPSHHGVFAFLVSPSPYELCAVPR

[31] = AUC (0 to 23 hrs) in NOD-SCID IL2Rgamma null mouse blood infected with Plasmodium falciparum 3D70087/N9 at 50 mg/kg, po qd for 4 days starting from 3 days post infection and measured after 24 hrs post dose by LC-MS/MS analysis; assay type: ADME, organism-based; parameters: dose 50 mg/kg, time < 23 hr, route oral
[32] = buffer, pH 7.4
[33] = Oral bioavailability in Sprague-Dawley rat at 33 mg/kg administered via gavage measured up to 24 hrs by LC-MS analysis; assay type: ADME, organism-based; conditions: in vivo
[34] = tested on: HepG2; test: Cytotoxicity against human HepG2 cells assessed as reduction in cell viability; assay type: cell-based
[35] = molecular target: T2, Cytochrome P450 1A2 (Homo sapiens, UniProt P05177); test: Time-dependent inhibition of CYP1A2 in human liver microsomes using phenacetin as substrate in absence of NADPH regenerating system by UPLC-MS analysis; assay type: ADME
T2 sequence (P05177 whole entry): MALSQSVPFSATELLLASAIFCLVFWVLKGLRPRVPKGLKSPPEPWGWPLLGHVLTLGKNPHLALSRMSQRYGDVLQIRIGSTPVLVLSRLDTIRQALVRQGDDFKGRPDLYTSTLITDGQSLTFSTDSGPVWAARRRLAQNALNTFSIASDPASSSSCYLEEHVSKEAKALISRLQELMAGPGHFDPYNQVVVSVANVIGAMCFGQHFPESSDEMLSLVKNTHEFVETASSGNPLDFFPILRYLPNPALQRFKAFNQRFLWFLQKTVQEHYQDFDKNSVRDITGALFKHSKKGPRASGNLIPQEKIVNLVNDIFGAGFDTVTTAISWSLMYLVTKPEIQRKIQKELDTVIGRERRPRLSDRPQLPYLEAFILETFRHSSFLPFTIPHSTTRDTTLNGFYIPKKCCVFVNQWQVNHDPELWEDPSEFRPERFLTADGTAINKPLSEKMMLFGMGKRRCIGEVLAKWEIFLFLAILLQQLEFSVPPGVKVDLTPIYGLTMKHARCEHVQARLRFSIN

Cc1c(Cc2ccc(C(F)(F)F)nc2)c[nH]c1C(=O)NC1CC1
Cmax [1]: 4.6 µM | Cmax [2]: 7.81 µM | fraction unbound [3]: 0.111 | solubility [4]: 115 µg/mL (≈ 356 µM) | CC50 [5]: > 50 µM | t1/2(app) [6]: 3.6 h | fAUC [7]: 1100 ng·h/mL | pEC50 [8]: 7.62 | pEC50 [9]: < 4.48 | pIC50 [10]: 5.26 | Vdss [11]: 1.2 L/kg | Cmax [12]: 8.4 µM | pEC50 [13]: < 4.96 | t1/2(app) [14]: 2.8 h | solubility [15]: 60.1 µg/mL (≈ 186 µM) | fraction unbound [16]: 0.685 | F [17]: > 100% | AUC [18]: 55.6 µM·h | Cmax [19]: 42.3 µM | pIC50 [20]: < 4.70 | AUC [21]: 220 µM·h | Activity [22]: Toxic | pIC50 [23]: < 4.70 | AUC [24]: 44.5 µM·h | pIC50 [25]: < 4.70 | Activity [26]: Toxic | t1/2(app) [27]: 2.8 h | fraction unbound [28]: 0.701 | microsomal CLint [29]: 24 µL/min/mg | TDI [30]: Not Active | AUC at 23 h [31]: 26.7 µM·h | solubility [32]: 45.6 µg/mL (≈ 141 µM) | F [33]: > 100% | CC50 [34]: > 50 µM | TDI [35]: Not Active
